Laboratory results taken from patent US20200289645A1, “TREATMENTS AND METHODS FOR CONTROLLING HYPERTENSION” (Georgetown University, priority 2017, published 2020).
Entries after “also recorded” stand apart in the source; their conditions may differ. Blank lines part the entries; values can stand above or below the compound they belong to.

What was measured:
[1] = system: isolated renal afferent arterioles; test: Isolated perfused renal afferent arteriole contractility; assay type: cell-based, mice
Text: FIG. 4 depicts the effect of BP1 on isolated renal afferent arteriole contractility. 4A, Isolated perfused renal afferent arteriole mounted on a perfusion pipette with diameter recorded. The internal diameter is 10 to 11 micrometers under control conditions (=100%). 4B to 4D, Impact of BP1 induction and/or FGF2 knockout (FGF2−/−) on angiotensin II (AngII) or norepinephine (NE) contractility. 4B, Effect of conditional BP1 expression (BP1 ON/OFF). […] The effect of AngII in FGF2−/− mice is shown for comparison (see panel C). 4C, Effect of AngII in afferent arterioles from FGF2−/− mice. […] BP1 alone or FGF2 alone are shown for comparison. 4D, Effect of NE in afferent arterioles from wt and FGF2−/− mice. Contractility induced by NE is not affected in FGF2−/− mice.
Isolated vessels provide an approach for the analysis of vascular function that is not affected by systemic cardiovascular regulation in the intact animal. BP1 up-regulation related to human hypertension was found in the kidneys that are key organs in systemic blood pressure regulation. Thus, the impact of BP1 expression was evaluated in isolated renal afferent arterioles that are the major renal resistance vessels. […] Addition of AngII to this preparation leads to a concentration-dependent constriction. […] Thus, the AngII contractile effect depends on FGFR signaling in isolated vessels as well as in arterioles in vivo (FIG. 3B).
The blockade of AngII effects in vessels from wt mice by an FGFR kinase inhibitor (FIG. 4B) corroborates the crucial role of FGF signaling for AngII efficacy. It is noteworthy that vessels from FGF2−/− mice still contracted in response to other ligands. For example, the effect of norepinephrine (NE) was indistinguishable between FGF2−/− and wt controls (FIG. 4D) indicating a selective crosstalk between AngII and FGF signaling. Renal AngII receptor 1 (AT1R) mRNA was not changed upon induction of BP1 expression or in FGF2−/− mice.
Because FGF2 and BP1 are extracellularly acting proteins, recombinant proteins were added to renal afferent arterioles from FGF2−/− mice to assess if this would rescue AngII vasoconstriction.

FGF2−/− mice = test: Telemetric MAP in FGF2-/- mice after exogenously administered AngII; assay type: in vivo; details: FGF2−/− relative to wild-type mice
Text: Kidneys contain amongst the highest concentrations of FGF2 protein that is immobilized in the extracellular matrix and can be released by BP1. To assess a contribution by FGF2, the efficacy of AngII was investigated and the crosstalk with BP1 in renal afferent arterioles from FGF2−/− mice. […] Also, the effect of exogenously administered AngII on MAP was reduced.

cremaster arterioles = test: Cremaster arteriole contractility in vivo (superfusion, intravital microscopy); set-up: species or system mice
Protocol: FIG. 3 depicts the effect of the induction of BP1 expression on cremaster arteriole contractility in vivo. 3A, Representative images of a single arteriole in a live animal at baseline, and after constriction or dilation by superfusion with AngII or acetylcholine respectively. The vessel diameter is recorded by intravital microphotography. 3B, Dose-response of AngII on arteriole diameter in mice with BP1 OFF (open symbols) or ON (for 48 hours; closed symbols). The FGFR kinase inhibitor PD173074 (PD) was administered intraperitoneally to a subset of animals (red symbols). […] 3C, Dose response of Phenylephrine (PE) on cremaster arteriole diameter in mice with BP1 OFF (open symbols) or ON (for 48 hours; closed symbols). Mean±SEM, n=4 animals/group.
To evaluate whether conditional BP1 expression sensitized resistance vessels in vivo, cremaster arterioles were exposed in anesthetized mice and superfused locally with vasoconstrictor or -dilator ligands. Representative intravital microscopic images of an arteriole at baseline, with AngII (constriction) or acetylcholine (dilation) superfusion is shown in FIG. 3A. […] This sensitization was prevented by pretreatment of animals with the FGFR kinase inhibitor PD173074 23 (FIG. 3B).
Thus, phenylephrine (PE) was selected as a ligand that activates alphal-adrenergic receptors. […] Neither the EC50 (2 μM) nor the maximal effect of PE were different between the BP1 ON and OFF groups (FIG. 3C). Thus, conditional expression of BP1 sensitizes arterioles to AngII in vivo. This sensitization was dependent on FGFR signaling.

[2] = system: conscious transgenic mice; test: Mean arterial pressure (MAP) by telemetry in conscious conditional BP1 transgenic mice; assay type: in vivo; details: night time MAP
Protocol: FIG. 2 depicts the effect of conditional expression of the BP1 transgene and of inhibitors on mean arterial pressure (MAP) and heart rate (HR). 2A, 2B, Circadian changes in MAP (A) and HR (B) by telemetry of conscious mice. Averages for 10 days before (BP1 OFF, open symbols) and 10 days after the induction of the BP1 transgene (BP1 ON, closed symbols) relative to the 24 hour clock time. Dark and light periods are indicated. Mean±SEM values (for n=10 time points) from one representative animal (total n=6). P<0.0001 by non-linear regression analysis and ANOVA. 2C, Effect of induction of BP1 transgene expression on night time MAP. Gene expression was induced by switching from a tetracycline containing to a regular chow (+DOX to −DOX; open and filled circles). Non-transgenic littermates (non-TG; triangles) were subjected to the same diet schedule. Mean±SEM of night time MAP; n=6 per group. ANOVA analysis of BP1 ON versus OFF or versus control group. ***, P<0.0001. 2D, 2E, Effect of treatment with candesartan (D) or tempol (E) on night time MAP of animals with the BP1 transgene OFF or ON. Mean±SEM; n=5 per group. *, P<0.05; **, P<0.01; ***, P<0.0001 by ANOVA.
To test the effect of conditional expression of BP1, mean arterial pressure (MAP) was monitored by telemetry in conscious transgenic mice. Under control conditions (BP1 OFF) there was a circadian rhythm of MAP that varied by 20 mm Hg between periods of activity (night time) and rest (day time). A sinus wave function described the day/night variation of the data (FIG. 2A). […] This overall increase in MAP coincided with a significant decrease in the heart rate and a dampened amplitude of circadian regulation (FIG. 2B). The increase of blood pressure occurred within two days of a switch to the tetracycline-free, regular diet in parallel with the induction of the BP1 transgene (FIG. 2C).
The increase in MAP and decrease in heart rate after induction of BP1 expression (FIG. 2A,B) was reminiscent of an angiotensin-like vasopressor effect that depends on reactive oxygen species (ROS) signaling. […]

Compound: CC[C@H](C)[C@H](NC(=O)[C@H](Cc1ccc(O)cc1)NC(=O)[C@@H](NC(=O)[C@H](CCCNC(=N)N)NC(=O)[C@@H](N)CC(=O)O)C(C)C)C(=O)N[C@@H](Cc1c[nH]cn1)C(=O)N1CCC[C@H]1C(=O)N[C@@H](Cc1ccccc1)C(=O)O [AngII, Angiotensin II]
AngII effect in afferent arterioles after conditional BP1 transgene expression ([1]; BP1 ON versus OFF): increases the AngII effect; also recorded: significantly enhanced effect | contraction of afferent arterioles from FGF2-/- mice ([1]; FGF2−/− mice): abolished; also recorded: failed to induce a contraction | effect of exogenously administered AngII on MAP (FGF2−/− mice): reduced

Compound: CCN(CC)CCCCNc1ncc2cc(-c3cc(OC)cc(OC)c3)c(NC(=O)NC(C)(C)C)nc2n1 [PD173074]
effect on AngII response in control animals (cremaster arterioles; BP1 OFF, intraperitoneal): small and insignificant effect | effect on BP1-induced sensitization to AngII vasoconstriction (cremaster arterioles; BP1 ON, pretreatment, intraperitoneal): prevented | effect on AngII constriction of afferent arterioles ([1]; 100 nM pretreatment of vessels): inhibited the effect of AngII

EC50 (cremaster arterioles; Mus musculus, not different between BP1 ON and OFF groups, read-out: EC50 of PE on cremaster arteriole diameter): 2000 nM
Compound: CNC[C@H](O)c1cccc(O)c1 [PE, phenylephrine]
sensitization of vessels by BP1 expression (cremaster arterioles; BP1 ON versus OFF): did not sensitize

Compound: CC1(C)CC(O)CC(C)(C)N1[O] [Tempol, tempol]
effect on basal MAP ([2]; BP1 OFF): reduced basal MAP | effect on increase of MAP after BP1 induction [2]: prevented the increase in MAP after BP1 induction | effect on increase of MAP after BP1 induction ([2]; listed as tempol): prevented

Compound: NC[C@H](O)c1ccc(O)c(O)c1 [norepinephrine]
contractility in FGF2-/- versus wt afferent arterioles [1]: indistinguishable | contractility in FGF2-/- versus wt afferent arterioles ([1]; listed as NE): not affected

Compound: FGF2: recombinant fibroblast growth factor 2 protein
rescue of AngII vasoconstriction in afferent arterioles from FGF2-/- mice ([1]; recombinant proteins added, 20 ng/ml for 30 min): did not impact the AngII response
